# Key:
# [1] = Antiproliferative activity against human HFL1 cells after 96 hrs by crystal violet assay; assay type: cell-based; details: read-out: ED50
# T-24 [2] = experiment: Antiproliferative activity against human T24 cells after 96 hrs by crystal violet assay; assay type: functional; details: T-24, 96 h, read-out: ED50 (the source's name)
# HFL1 = experiment: Induction of glycosaminoglycan synthesis priming in human HFL1 cells assessed as ratio of fractions containing free glycosaminoglycan chains in drug to untreated control; assay type: cell-based; further: test concentration or dose not given here
# T-24 [3] = experiment: Induction of glycosaminoglycan synthesis priming in human T24 cells assessed as ratio of fractions containing free glycosaminoglycan chains in drug to untreated control; assay type: functional; further: test concentration or dose not given here
Ratio (HFL1),Structure (SMILES),GI50 at 96 h [1] [µM],EC50 (T-24 [2]) [µM],Ratio (T-24 [3])
2.4,CC(=O)O[C@@H]1[C@@H](OC(C)=O)[C@H](Oc2cccc3cccc(O[C@@H]4OC[C@@H](OC(C)=O)[C@H](OC(C)=O)[C@H]4OC(C)=O)c23)OC[C@H]1OC(C)=O,20,190,1.7
0.8,CC(=O)O[C@@H]1[C@@H](OC(C)=O)[C@H](Oc2ccc3ccccc3c2O[C@@H]2OC[C@@H](OC(C)=O)[C@H](OC(C)=O)[C@H]2OC(C)=O)OC[C@H]1OC(C)=O,5,25,1.4
2.8,CC(=O)O[C@@H]1[C@@H](OC(C)=O)[C@H](Oc2cc3ccccc3cc2O[C@@H]2OC[C@@H](OC(C)=O)[C@H](OC(C)=O)[C@H]2OC(C)=O)OC[C@H]1OC(C)=O,30,220,4.2
4.7,CC(=O)O[C@@H]1[C@@H](OC(C)=O)[C@H](Oc2cc(O[C@@H]3OC[C@@H](OC(C)=O)[C@H](OC(C)=O)[C@H]3OC(C)=O)c3ccccc3c2)OC[C@H]1OC(C)=O,20,40,3.4
12.7,CC(=O)O[C@@H]1[C@@H](OC(C)=O)[C@H](Oc2ccc3c(O[C@@H]4OC[C@@H](OC(C)=O)[C@H](OC(C)=O)[C@H]4OC(C)=O)cccc3c2)OC[C@H]1OC(C)=O,160,100,8.8
2.2,CC(=O)Oc1cc2ccccc2cc1O[C@@H]1OC[C@@H](OC(C)=O)[C@H](OC(C)=O)[C@H]1OC(C)=O,75,260,4.6
1.8,CC(=O)Oc1ccc2c(O[C@@H]3OC[C@@H](OC(C)=O)[C@H](OC(C)=O)[C@H]3OC(C)=O)cccc2c1,80,110,6.4
6.2,CC(=O)Oc1ccc2cccc(O[C@@H]3OC[C@@H](OC(C)=O)[C@H](OC(C)=O)[C@H]3OC(C)=O)c2c1,80,170,8.2
2.1,CC(=O)Oc1cccc2ccc(O[C@@H]3OC[C@@H](OC(C)=O)[C@H](OC(C)=O)[C@H]3OC(C)=O)cc12,65,75,4.8
2.7,CC(=O)Oc1cccc2c(O[C@@H]3OC[C@@H](OC(C)=O)[C@H](OC(C)=O)[C@H]3OC(C)=O)cccc12,90,170,6.1
4.8,CC(=O)Oc1ccc(O[C@@H]2OC[C@@H](OC(C)=O)[C@H](OC(C)=O)[C@H]2OC(C)=O)c2ccccc12,80,130,9
2.2,CC(=O)Oc1ccc2ccc(O[C@@H]3OC[C@@H](OC(C)=O)[C@H](OC(C)=O)[C@H]3OC(C)=O)cc2c1,85,190,6.5
1.8,CC(=O)Oc1c(O[C@@H]2OC[C@@H](OC(C)=O)[C@H](OC(C)=O)[C@H]2OC(C)=O)ccc2ccccc12,110,250,7.1
2.2,CC(=O)Oc1cc(O[C@@H]2OC[C@@H](OC(C)=O)[C@H](OC(C)=O)[C@H]2OC(C)=O)c2ccccc2c1,20,25,4.5
5.4,CC(=O)O[C@@H]1[C@@H](OC(C)=O)[C@H](Oc2cccc3c(O[C@@H]4OC[C@@H](OC(C)=O)[C@H](OC(C)=O)[C@H]4OC(C)=O)cccc23)OC[C@H]1OC(C)=O,10,170,6.9
15.5,CC(=O)O[C@@H]1[C@@H](OC(C)=O)[C@H](Oc2ccc3cc(O[C@@H]4OC[C@@H](OC(C)=O)[C@H](OC(C)=O)[C@H]4OC(C)=O)ccc3c2)OC[C@H]1OC(C)=O,55,320,8.2
13.6,CC(=O)O[C@@H]1[C@@H](OC(C)=O)[C@H](Oc2ccc(O[C@@H]3OC[C@@H](OC(C)=O)[C@H](OC(C)=O)[C@H]3OC(C)=O)c3ccccc23)OC[C@H]1OC(C)=O,15,140,8
6.4,CC(=O)O[C@@H]1[C@@H](OC(C)=O)[C@H](Oc2ccc3ccc(O[C@@H]4OC[C@@H](OC(C)=O)[C@H](OC(C)=O)[C@H]4OC(C)=O)cc3c2)OC[C@H]1OC(C)=O,65,60,5.4
11.1,CC(=O)O[C@@H]1[C@@H](OC(C)=O)[C@H](Oc2ccc3cccc(O[C@@H]4OC[C@@H](OC(C)=O)[C@H](OC(C)=O)[C@H]4OC(C)=O)c3c2)OC[C@H]1OC(C)=O,135,110,0.5
1.3,CC(=O)Oc1cccc2cc(O[C@@H]3OC[C@@H](OC(C)=O)[C@H](OC(C)=O)[C@H]3OC(C)=O)ccc12,100,65,6.9
2.5,CC(=O)Oc1ccc2cc(O[C@@H]3OC[C@@H](OC(C)=O)[C@H](OC(C)=O)[C@H]3OC(C)=O)ccc2c1,80,45,5.4
0.8,CC(=O)Oc1cccc2cccc(O[C@@H]3OC[C@@H](OC(C)=O)[C@H](OC(C)=O)[C@H]3OC(C)=O)c12,110,205,2.4
0.6,CC(=O)Oc1ccc2ccccc2c1O[C@@H]1OC[C@@H](OC(C)=O)[C@H](OC(C)=O)[C@H]1OC(C)=O,65,170,0.5
1,CC(=O)Oc1cc(O[C@@H]2OC[C@@H](OC(C)=O)[C@H](OC(C)=O)[C@H]2OC(C)=O)cc2ccccc12,60,65,3.7

# — ChEMBL document CHEMBL1153912, “Antiproliferative effects of peracetylated naphthoxylosides” (Bioorg Med Chem Lett, 2009)
